Source: patent US8236858B2, “Substituted aryl-indole compounds and their kynurenine/kynuramine-like metabolites as therapeutic agents” (Neurim Pharmaceuticals (1991) Ltd., priority 2006, dated 2012)

Assays:
MPTP-treated mice = assay: Anti-Parkinsonian activity in MPTP-treated mice with a sub threshold dose of L-DOPA (motor activity counts); type: in vivo, C57 BL/6 mice; conditions: MPTP-treated mice (2×40 mg/kg s.c.); compound 3 mg/kg orally + 5 mg/kg L-Dopa s.c.; counts with Vehicle (no MPTP) = 100%
Procedure: Animals: six month old male C57 BL/6 mice, weighing 22-25 g were used. Following arrival at the laboratory, the mice were allowed to acclimatize for two weeks in a room with controlled temperature (21±1° C.), and a constant light-dark schedule (12 hr on/12 hr off, lights on between 06.00 and 18.00 hrs). Free access to food and water was maintained throughout. They were housed in groups of 12 animals and tested only during the hours of light (08.00-15.00 hrs). All testing was performed in a normally lighted room.
Behavioural measurements and apparatus: An automated device, consisting of macrolon rodent test cages (40×25×15 cm), each placed within two series of infra-red beams (at two different heights, one low and one high, 2 and 8 cm, respectively, above the surface of the sawdust, 1 cm deep), was used to measure spontaneous and/or drug-induced motor activity of 1-methyl 4-phenyl 1,2,3,6-tetrahydropyridine (MPTP) and control mice. The following parameters were measured: LOCOMOTION was measured by the low grid of infrared beams. Counts were registered only when the mouse in the horizontal plane, ambulating around the test-cage. REARING was registered throughout the time when at least one high level beam was interrupted, i.e. the number of counts registered was proportional to the amount of time spent rearing. TOTAL ACTIVITY was measured by a sensor (a pick-up similar to a gramophone needle, mounted on a lever with a counterweight) with which the test cage was constantly in contact. The sensor registered all types of vibration received from the test cage, such as those produced both by locomotion and rearing as well as shaking, tremors, scratching and grooming.
Behavioral measurements (locomotion, rearing and total activity): Twelve days after MPTP injections (2×40 mg/kg, s.c., 24 hr interval), the mice were administered orally with the different compounds at 3 mg/kg or vehicle (0.1% Tween-80 in 1% methylcellulose) and immediately thereafter placed in the activity test chambers and their motor behaviors were monitored for 60 min. After 60 min, the mice were injected with 5 mg/kg L-Dopa (s.c) and then replaced in the test chamber and activity measurements maintained for an additional 300 min.
Table 2 presents the locomotion, rearing and total activity counts of MPTP-treated and control mice administered either tested substances or vehicle administered with a sub threshold dose of L-Dopa.

NMDA-activated currents = assay: Electrophysiological characterisation of NMDA-activated currents in freshly isolated hippocampal neurones (whole-cell patch clamp); type: cell-based, Wistar rats; conditions: for % Inhibition Peak Current / % Inhibition Steady State Current: 1 μM substance, 10 μM glycine, 300 μM L-aspartate, holding potential −70 mV, mean of at least 4 cells; for blocking activity on NMDA-activated currents (in words): summary of Table 3, 1 μM
Procedure: Isolation of hippocampal neurons: Wistar rats (12-14 days) were decapitated without anesthesia and the hippocampus was removed. It was manually cut into slices (0.2-0.4 mm), in a solution containing (mM): 150 NaCl; 5 KCL; 1.25 NaH2PO4; 2 CaCl2; 2 MgCl2; 26 NaHCO3; 20 glucose. Slices were preincubated in this solution for 30 min at room temperature. The enzymatic treatment proceeded in the same solution with lower Ca^2+ concentration (0.5 mm) containing 0.4 mg/ml protease from aspergillus oryzae. The incubation in the enzyme solution proceeded at 32° C. within 10 min. Slices were kept subsequently in enzyme-free solution containing normal Ca^2±concentration and used within 6-8 h for obtaining isolated neurons. Throughout the entire procedure the solutions were continuously saturated with a 95% O2 and 5% CO2 gas mixture to maintain pH of 7.4. For cell dissociation the slice was transferred into the extracellular solution containing (mM): 150 NaCl; 5 KCl; 2 CaCl2; 10 n-2-hydroxyethylpiperazine-n′-2-ethanesulphonic acid (Hepes); pH adjusted with NaOH to 7.4. Single cells were isolated from CA and CA3 zones of hippocampal slices by vibrodissociation method. […] After isolation they were usually suitable for the recording for 1-2 h.
Salines and chemicals: The contents of the extracellular solution was as follows (in mM): 130 NaCl, 5KCl, 2CaCl2, 20 n-2-hydroxyethylpiperazine-n′-2-ethansulfonic acid (Hepes); 0.1 μm TTX, 10 μm glycine, […] 1-aspartate; pH was adjusted with NaOH to 7.4.
The contents of the intracellular solution were as follows (in mM): 110 CsF, 20 Tris-HCl (pH=7.2). L-aspartate and glycine solutions were prepared on the day of experiment.
The tested substances were dissolved in DMSO.
Current recording and data analysis: The drug-containing solutions were applied by the fast “concentration clamp” method using “jumping table” set-up. The currents were recorded with patch clamp technique in the whole-cell configuration. Recording of the currents was performed using EPC-7 L/M patch-clamp amplifier.
NMDA-activated currents: The currents were filtered at 3 kHz (three-pole active Bessel filter) digitally sampled at the rate 6000 μs per point for NMDA activated currents. NMDA-induced transmembrane currents were measured in the presence of 10 μM glycine and 300 μM L-aspartate in the control and test solutions. The currents were recorded at holding potential −70 mV.
Calculations: The inhibition of current at 1 μM of the substance was averaged at least for 4 cells. The effect of substance was measured as the mean ratio I/Io where I was the current under the action of substance and Io was the current in control conditions.

GSK3β = biological target: T1, GSK3β (Homo sapiens, UniProt P49841); assay: Evaluation of GSK3β activity: inhibition of purified GSK3β, [γ-32P]ATP / GS-2 peptide filter assay; type: biochemical; conditions: for IC50: purified GSK3β expressed in Sf9 cells, 15 μM ATP, GS-2 peptide substrate, 30 min at 30° C.; for inhibiting activity on GSK3β activity (in words): summary of Table 1
T1 construct: made in house; host or cells: insect Sf9 cells
T1 sequence (P49841 whole entry, species assumed): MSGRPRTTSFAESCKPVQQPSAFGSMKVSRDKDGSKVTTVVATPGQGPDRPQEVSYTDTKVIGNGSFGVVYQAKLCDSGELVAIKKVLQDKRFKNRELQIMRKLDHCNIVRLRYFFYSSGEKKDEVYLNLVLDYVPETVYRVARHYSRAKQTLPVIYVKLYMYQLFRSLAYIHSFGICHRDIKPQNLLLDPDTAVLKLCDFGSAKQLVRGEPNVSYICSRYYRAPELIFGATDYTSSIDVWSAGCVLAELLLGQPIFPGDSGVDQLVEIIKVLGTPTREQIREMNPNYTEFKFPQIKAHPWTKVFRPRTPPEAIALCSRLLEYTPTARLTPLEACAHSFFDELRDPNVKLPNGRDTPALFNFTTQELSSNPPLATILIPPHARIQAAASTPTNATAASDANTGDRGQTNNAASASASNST
Procedure: Compounds were evaluated for inhibition against purified GSK3β. GSK3β was expressed in and purified from insect Sf9 cells. Compounds (10 μM) were assayed; following a 1/100 dilution of the enzyme in 1 mg/ml BSA, 10 mM DTT, with 5 μl of 40 μM GS-2 peptide as a substrate, in a buffer, in the presence of 15 μM [γ-^32P]ATP (3000 Ci/mmol; 1 mCi/ml) in a final volume of 30 μl. After 30-min incubation at 30° C., 25-μl aliquots of supernatant were spotted onto 2.5×3 cm pieces of Whatman P81 phosphocellulose paper, and, 20 s later, the filters were washed five times (for at least 5 min each time) in a solution of 10 ml of phosphoric acid/liter of water. The wet filters were counted in the presence of 1 ml of scintillation fluid.

SMILES	LOCOMOTION (MPTP-treated mice) [%]	REARING (MPTP-treated mice) [%]	TOTAL ACTIVITY (MPTP-treated mice) [%]	% Inhibition Peak Current (NMDA-activated currents) [%]	% Inhibition Steady State Current (NMDA-activated currents) [%]	blocking activity on NMDA-activated currents (in words) (NMDA-activated currents)	IC50 (GSK3β) [µM]	inhibiting activity on GSK3β activity (in words) (GSK3β)
COc1ccc2[nH]cc(CCNc3ccc(C#N)c(C#N)c3)c2c1 [N-(3,4-dicyanophenyl)-5-methoxytryptamine]	19	27	48	84.4	78.4	significant blocking activity	16.8	significant inhibiting activity
O=C(O)c1cc([N+](=O)[O-])ccc1NCCc1c[nH]c2ccccc12 [N-(2-Carboxy-4-nitrophenyl)-tryptamine]	16	25	45	76.7	70.4	significant blocking activity	14.2	significant inhibiting activity
